From US10202381B2, “Histone demethylase inhibitors” (CELGENE QUANTICEL RESEARCH, INC., priority 2014, dated 2019)

Assays:
[1] = target: JMJD2C (Homo sapiens (Human), UniProt Q9H3R0); test: In vitro enzyme inhibition assay (JMJD2C TR-FRET); format: biochemical; details: 0.3 nM JMJD2C, 300 nM H3K9me3-biotin peptide, 2 μM alpha-ketoglutaric acid
Description: This assay determines the ability of a test compound to inhibit JMJD2C demethylase activity. Baculovirus expressed JMJD2C (GenBank Accession #BC143571, AA 2-372) was purchased from BPS Bioscience (Cat#50105).
The ability of test compounds to inhibit the activity of JMJD2C was determined in 384-well plate-format under the following reaction conditions: 0.3 nM JMJD2C, 300 nM H3K9me3-biotin labeled peptide (Anaspec cat #64360), 2 μM alpha-ketoglutaric acid in assay buffer of 50 mM HEPES, pH 7.3, 0.005% Brij35, 0.5 mM TCEP, 0.2 mg/ml BSA, 50 μM sodium L-ascorbate, and 2 μM ammonium iron(II) sulfate. Reaction product was determined quantitatively by TR-FRET after the addition of detection reagent Phycolink Streptavidin-allophycocyanin (Prozyme) and Europium-anti-di-methylated histone H3 lysine 9 (H3K9me2) antibody (PerkinElmer) in the presence of 5 mM EDTA in LANCE detection buffer (PerkinElmer) at a final concentration of 50 nM and 1 nM, respectively.
The assay reaction was initiated by the following: 2 μl of the mixture of 900 nM H3K9me3-biotin labeled peptide and 6 μM alpha-ketoglutaric acid with 2 μl of 11-point serial diluted inhibitor in 3% DMSO were added to each well of the plate, followed by the addition of 2 μl of 0.9 nM JMJD2C to initiate the reaction. The reaction mixture was incubated at room temperature for 30 min, and terminated by the addition of 6 μl of 5 mM EDTA in LANCE detection buffer containing 100 nM Phycolink Streptavidin-allophycocyanin and 2 nM Europium-anti-H3K9me2 antibody. Plates were read by EnVisionMultilabel Reader in TR-FRET mode (excitation at 320 nm, emission at 615 nm and 665 nm) after 1 hr incubation at room temperature. A ratio was calculated (665/615) for each well and fitted to determine inhibition constant (IC50).
The ability of the compounds disclosed herein to inhibit demethylase activity was quantified and the respective IC50 value was determined. Table 3 provides the IC50 values of various compounds disclosed herein.

[2] = system: KYSE-150 esophageal carcinoma cell line; test: In vitro cell-based assay: BrdU cell proliferation ELISA; parameters: species or system human; details: Homo sapiens; KYSE-150 cells, BrdU incorporation after 168 hr of compound incubation; read-out: Cellular IC50
Description: Cell lines tested include the JMJD2C gene amplified cell line KYSE-150. This is a quantitative ELISA assay measuring DNA incorporation of BrdU during S-phase as a direct readout of cellular proliferation.
Assay Principle: This is a colorimetric immunoassay for the quantification of cell proliferation. Cells treated for 168 hr with test compounds are assayed for their ability to go through S-phase as a measure of their proliferative potential.
Assay Method: The human KYSE-150 (SMAD4 mut, TP53 mut) esophageal carcinoma cell line was seeded at 2,000 cells/well on a 96-well tissue culture treated plate. After an overnight incubation, cells were treated with compound in an 11-point dilution series with final concentrations ranging from 100 μM to 2 nM. Cells were then incubated in the presence of compound for 168 hr. After compound incubation the cells were assayed using a BrdU Cell Proliferation ELISA (Roche). The cells were first incubated with BrdU labeling reagent for 2 hr. After 2 hr, the BrdU incorporated cells were fixed and denatured, probed with an anti-BrdU-Peroxidase antibody for 1.5 hr and washed. Finally, a tetramethylbenzidine peroxidase substrate was added to each well for 15 min. followed by a H2SO4 stop solution. The plate was read at 450 nm, and the raw optical density data was transferred into XLFit (IDBS) for IC50 calculation using the formula: fit=(D+((Vmax*(x^n))/((x^n)+(Km^n)))).
Table 4 provides the cellular IC50 values of various compounds disclosed herein.

JMJD2C, sequence (Q9H3R0 2-372): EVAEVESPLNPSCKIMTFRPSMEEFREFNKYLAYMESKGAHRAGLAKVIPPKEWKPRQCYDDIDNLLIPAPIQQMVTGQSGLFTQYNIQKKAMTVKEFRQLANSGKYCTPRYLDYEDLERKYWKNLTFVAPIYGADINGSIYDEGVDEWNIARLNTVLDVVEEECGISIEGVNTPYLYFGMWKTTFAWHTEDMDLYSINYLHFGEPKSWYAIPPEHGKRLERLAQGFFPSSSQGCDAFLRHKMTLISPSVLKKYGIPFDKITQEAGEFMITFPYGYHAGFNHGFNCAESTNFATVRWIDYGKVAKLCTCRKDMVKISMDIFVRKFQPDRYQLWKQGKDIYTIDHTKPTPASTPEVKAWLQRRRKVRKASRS

| IC50 [1] [nM] | IC50 [2] [nM] | SMILES |
| --- | --- | --- |
| 100 to 1000 | 1000 to 10000 | CCc1ccc(N(C)c2ccc(Oc3nc(O)c4ccncc4n3)cc2)cc1OC [Example 135, 2-(4-((4-ethyl-3-methoxyphenyl)(methyl)amino)phenoxy)pyrido[3,4-d]pyrimidin-4-ol] |
| ≤ 100 | 1000 to 10000 | CC(C)c1ccc(Nc2ccc(Oc3nc(O)c4ccncc4n3)cc2)cc1 [Example 121, 2-(4-((4-isopropylphenyl)amino)phenoxy)pyrido[3,4-d]pyrimidin-4-ol] |
| ≤ 100 | 1000 to 10000 | CN1CCN(c2cc(N(C)c3ccc(Oc4nc(O)c5ccncc5n4)cc3)ccc2OCC(F)(F)F)CC1 [Example 136, -(4-(methyl(3-(4-methylpiperazin-1-yl)-4-(2,2,2-trifluoroethoxy)phenyl)amino)phenoxy)pyrido[3,4-d]pyrimidin-4-ol] |
| ≤ 100 | ≤ 100 | CC(C)c1ccc(N(c2ccc(Oc3nc(O)c4ccncc4n3)cc2)C2CCNC2)cc1 (stereo not shown) [Example 126, 2-(4-((4-isopropylphenyl)(pyrrolidin-3-yl)amino)phenoxy)pyrido[3,4-d]pyrimidin-4-ol] |

| SMILES | IC50 [1] [nM] | IC50 [2] [nM] |
| --- | --- | --- |
| CC(C)c1ccc(N(c2ccc(Oc3nc(O)c4ccncc4n3)cc2)C2CCN(C)CC2)cc1 [Example 119, 2-(4-((4-isopropylphenyl)(1-methylpiperidin-4-yl)amino)phenoxy)pyrido[3,4-d]pyrimidin-4-ol] | ≤ 100 | > 10000 |
